Measurements taken from article PMC7673680, “Small-molecule sequestration of amyloid-β as a drug discovery strategy for Alzheimer’s disease” (Science Advances, 2020).

Biological target: T1, amyloid-β 42 (Aβ42), monomeric (Homo sapiens, UniProt P05067)
T1 construct: gene APP; Aβ42, monomeric 42-residue peptide, N-terminally biotinylated for BLI
Experiment: biolayer interferometry (kon/koff global fit); supported by 2D HN-BESTCON NMR and dot-blot sequestration fit (Kd […])
Format: binding

T1 sequence (P05067 672-713): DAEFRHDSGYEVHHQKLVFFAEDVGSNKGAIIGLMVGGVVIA

- Kd: 6 µM
Compound: O=[N+]([O-])c1ccc(Nc2ccccc2-c2ccccc2)c2nonc12 [10074-G5, biphenyl-2-yl-(7-nitro-benzo[1,2,5]oxadiazol-4-yl)-amine]
